These results are taken from US20240018123A1, “COMPOUND FOR INHIBITING OR DISINTEGRATING ANDROGEN RECEPTOR, AND PHARMACEUTICAL USE THEREOF” (KOREA RESEARCH INSTITUTE OF CHEMICAL TECHNOLOGY, priority 2020, published 2024).

Where two headings read alike, the source gives them in different places.

Usually CC50 stands for the concentration giving 50% cytotoxicity.

One data set deals with VCaP cells. Put plainly: Cytotoxicity assessment (Cell-titer-glo cell viability), VCaP.
Another data set deals with T1, Androgen receptor (AR) (Homo sapiens, UniProt P10275, T878A).
T1 construct: 5.5×10^5 LNCap cells were injected into each well of a 6-well plate; endogenous in cells; host or cells: LNCaP
T1 sequence (P10275 1-920 T878A): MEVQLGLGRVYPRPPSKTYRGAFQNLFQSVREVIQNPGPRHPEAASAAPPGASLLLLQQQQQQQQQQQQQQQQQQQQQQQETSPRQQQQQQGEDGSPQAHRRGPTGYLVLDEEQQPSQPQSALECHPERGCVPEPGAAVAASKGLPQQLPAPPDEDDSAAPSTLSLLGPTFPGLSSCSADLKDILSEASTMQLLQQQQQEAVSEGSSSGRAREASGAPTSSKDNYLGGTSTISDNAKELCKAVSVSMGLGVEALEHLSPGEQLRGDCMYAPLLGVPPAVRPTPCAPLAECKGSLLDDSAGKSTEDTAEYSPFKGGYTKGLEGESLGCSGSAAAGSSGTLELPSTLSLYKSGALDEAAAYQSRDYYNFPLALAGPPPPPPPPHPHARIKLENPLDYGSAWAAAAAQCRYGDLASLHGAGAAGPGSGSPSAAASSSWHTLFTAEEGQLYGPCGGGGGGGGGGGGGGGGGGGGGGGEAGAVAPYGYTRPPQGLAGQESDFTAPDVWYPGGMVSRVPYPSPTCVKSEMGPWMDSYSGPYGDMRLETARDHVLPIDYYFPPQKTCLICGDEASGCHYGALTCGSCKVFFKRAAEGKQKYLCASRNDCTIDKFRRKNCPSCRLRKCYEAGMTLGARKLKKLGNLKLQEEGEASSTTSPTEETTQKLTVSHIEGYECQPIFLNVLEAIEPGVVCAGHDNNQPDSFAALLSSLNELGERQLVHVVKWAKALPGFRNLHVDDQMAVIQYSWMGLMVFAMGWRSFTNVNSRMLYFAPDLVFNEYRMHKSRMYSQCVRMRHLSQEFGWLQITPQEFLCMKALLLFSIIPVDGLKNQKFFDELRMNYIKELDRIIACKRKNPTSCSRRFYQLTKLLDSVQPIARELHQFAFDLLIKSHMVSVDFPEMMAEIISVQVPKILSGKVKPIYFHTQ
Put plainly: Assessment of AR proteolytic activity (Western blotting of LNCap cell lysates). The conditions noted are these: 24 hours of treatment, Western blotting quantified with Image J. It is filed as cell-based. Put shortly: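 LNCap cells seeded at 5.5×10^5 per well and treated with compound for 24 hours. Lysates prepared in RIPA buffer (pH 7.5, with protease inhibitors). AR protein levels assessed by Western blot with densitometric quantification.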
In general terms: A western blot detects proteins with antibodies after separation by electrophoresis.

The mark [1] stands for this setting: read-out: VCaP (CC50), VCaP cells, 6 days of treatment, Cell-titer-glo, vs DMSO.

Consider `CC1(C)[C@H](NC(=O)c2ccc(C3CCN(CCOC4CCN(C(=O)C5CCN(c6ccc7nnn(C8CCC(=O)NC8=O)c(=O)c7c6)CC5)CC4)CC3)cc2)C(C)(C)[C@H]1Oc1ccc(C#N)c(Cl)c1` (stereo partly drawn) [Example 74, N-((1r,3r)-3-(3-chloro-4-cyanophenoxy)-2,2,4,4-tetramethylcyclobutyl)-4-(1-(2-((1-(1-(3-(2,6-dioxopiperidin-3-yl)-4-oxo-3,4-dihydrobenzo[d][1,2,3]triazin-6-yl)piperidine-4-carbonyl)piperidin-4-yl)oxy)ethyl)piperidin-4-yl)benzamide], for which the CC50 in the data set on VCaP cells (setting [1]) was found to be 0.0732 µM. Besides, at Androgen receptor (AR), the “Degradation (1 μM treated in LNCaP, % AR remaining)” value is on record as 20%.

As to `CC1(C)C(NC(=O)c2ccc(N3CCN(CC4(O)CCN(C(=O)C5CCN(c6ccc7nnn(C8CCC(=O)NC8=O)c(=O)c7c6)CC5)CC4)CC3)cc2)C(C)(C)C1Oc1ccc(C#N)c(Cl)c1` (stereo not drawn) [Example 55, N-((1r,3r)-3-(3-chloro-4-cyanophenoxy)-2,2,4,4-tetramethylcyclobutyl)-4-(4-((1-(1-(3-(2,6-dioxopiperidin-3-yl)-4-oxo-3,4-dihydrobenzo[d][1,2,3]triazin-6-yl)piperidine-4-carbonyl)-4-hydroxypiperidin-4-yl)methyl)piperazin-1-yl)benzamide], the CC50 in the data set on VCaP cells (setting [1]) was 0.0365 µM. Further, at Androgen receptor (AR), the “Degradation (1 μM treated in LNCaP, % AR remaining)” value was found to be 8.6%.

Regarding `CC1(C)[C@H](NC(=O)c2ccc(N3CCN(CC4(F)CCN(c5ccc6nnn(C7CCC(=O)NC7=O)c(=O)c6c5)CC4)CC3)cc2)C(C)(C)[C@H]1Oc1ccc(C#N)c(Cl)c1` (stereo partly drawn) [Example 61, N-((1r,3r)-3-(3-chloro-4-cyanophenoxy)-2,2,4,4-tetramethylcyclobutyl)-4-(4-((1-(3-(2,6-dioxopiperidin-3-yl)-4-oxo-3,4-dihydrobenzo[d][1,2,3]triazin-6-yl)-4-fluoropiperidin-4-yl)methyl)piperazin-1-yl)benzamide], the CC50 in the data set on VCaP cells (Homo sapiens, VCaP, 144 h, read-out: VCaP (CC50, μM)) was determined as 0.29 µM. Further, on Androgen receptor (AR) (read-out: Degradation (1 μM treated in LNCaP, % AR remaining)), the remaining activity at 1 µM is 25%.

Turning to `CC1(C)[C@H](NC(=O)c2ccc(C#CCC3CCN(C(=O)C4CCN(c5ccc6nnn(C7CCC(=O)NC7=O)c(=O)c6c5)CC4)CC3)cc2)C(C)(C)[C@H]1Oc1ccc(C#N)c(Cl)c1` (stereo partly drawn) [Example 86, N-((1r,3r)-3-(3-chloro-4-cyanophenoxy)-2,2,4,4-tetramethylcyclobutyl)-4-(3-(1-(1-(3-(2,6-dioxopiperidin-3-yl)-4-oxo-3,4-dihydrobenzo[d][1,2,3]triazin-6-yl)piperidine-4-carbonyl)piperidin-4-yl)prop-1-yn-1-yl)benzamide], the CC50 with VCaP cells (setting [1]) amounted to 0.0349 µM. Also, on Androgen receptor (AR), the “Degradation (1 μM treated in LNCaP, % AR remaining)” value is 20%.

Regarding `CC1(C)C(NC(=O)c2ccc(N3CCN(CC4CCN(CCNC(=O)C5CCN(c6ccc7nnn(C8CCC(=O)NC8=O)c(=O)c7c6)CC5)CC4)CC3)cc2)C(C)(C)C1Oc1ccc(C#N)c(Cl)c1` (stereo not drawn) [Example 68, N-(2-(4-((4-(4-(((1r,3r)-3-(3-chloro-4-cyanophenoxy)-2,2,4,4-tetramethylcyclobutyl)carbamoyl)phenyl)piperazin-1-yl)methyl)piperidin-1-yl)ethyl)-1-(3-(2,6-dioxopiperidin-3-yl)-4-oxo-3,4-dihydrobenzo[d][1,2,3]triazin-6-yl)piperidine-4-carboxamide], the CC50 in the data set with VCaP cells (setting [1]) turned out to be 0.162 µM. Moreover, at Androgen receptor (AR), the “Degradation (1 μM treated in LNCaP, % AR remaining)” value is 26%.

For the molecule `CC1(C)C(NC(=O)c2ccc(N3CC4CC3CN4C3CC4(CCN(C(=O)C5CCN(c6ccc7nnn(C8CCC(=O)NC8=O)c(=O)c7c6)CC5)CC4)C3)cc2)C(C)(C)C1Oc1ccc(C#N)c(Cl)c1` (stereo not drawn) [Example 71, N-((1r,3r)-3-(3-chloro-4-cyanophenoxy)-2,2,4,4-tetramethylcyclobutyl)-4-(5-(7-(1-(3-(2,6-dioxopiperidin-3-yl)-4-oxo-3,4-dihydrobenzo[d][1,2,3]triazin-6-yl)piperidine-4-carbonyl)-7-azaspiro[3.5]nonan-2-yl)-2,5-diazabicyclo[2.2.1]heptan-2-yl)benzamide], the CC50 with VCaP cells (setting [1]) is 0.0705 µM. In addition, the “Degradation (1 μM treated in LNCaP, % AR remaining)” value on Androgen receptor (AR) is given as 37%.

Regarding `CC1(C)C(NC(=O)c2ccc(N3CCN(CC4CCN(C(=O)C5CN(c6ccc7nnn(C8CCC(=O)NC8=O)c(=O)c7c6)C5)CC4)CC3)nc2)C(C)(C)C1Oc1ccc(C#N)c(Cl)c1` (stereo not drawn) [Example 80, N-((1r,3r)-3-(3-chloro-4-cyanophenoxy)-2,2,4,4-tetramethylcyclobutyl)-6-(4-((1-(1-(3-(2,6-dioxopiperidin-3-yl)-4-oxo-3,4-dihydrobenzo[d][1,2,3]triazin-6-yl)azetidine-3-carbonyl)piperidin-4-yl)methyl)piperazin-1-yl)nicotinamide], in the data set on VCaP cells (setting [1]), the CC50 is 0.01 µM. In addition, the “Degradation (1 μM treated in LNCaP, % AR remaining)” value on Androgen receptor (AR) is on record as 56%.

Regarding `CC1(C)C(NC(=O)c2ccc(N3CCN(CC4CCN(c5ccc6nnn(C7CCC(=O)NC7=O)c(=O)c6c5)CC4)CC3)nc2)C(C)(C)C1Oc1ccc(C#N)c(Cl)c1` (stereo not drawn) [Example 78, N-((1r,3r)-3-(3-chloro-4-cyanophenoxy)-2,2,4,4-tetramethylcyclobutyl)-6-(4-((1-(3-(2,6-dioxopiperidin-3-yl)-4-oxo-3,4-dihydrobenzo[d][1,2,3]triazin-6-yl)piperidin-4-yl)methyl)piperazin-1-yl)nicotinamide], the CC50 in the data set on VCaP cells (setting [1]) was found to be 0.00768 µM. Moreover, the “Degradation (1 μM treated in LNCaP, % AR remaining)” value at Androgen receptor (AR) is 24%.

For the molecule `CC1(C)C(NC(=O)c2ccc(N3CCN(C=C4CCN(C(=O)C5CCN(c6ccc7nnn(C8CCC(=O)NC8=O)c(=O)c7c6)CC5)CC4)CC3)cc2)C(C)(C)C1Oc1ccc(C#N)c(Cl)c1` (stereo not drawn) [Example 65, N-((1r,3r)-3-(3-chloro-4-cyanophenoxy)-2,2,4,4-tetramethylcyclobutyl)-4-(4-((1-(1-(3-(2,6-dioxopiperidin-3-yl)-4-oxo-3,4-dihydrobenzo[d][1,2,3]triazin-6-yl)piperidine-4-carbonyl)piperidin-4-ylidene)methyl)piperazin-1-yl)benzamide], the CC50 with VCaP cells (setting [1]) came out at 0.044 µM. In addition, on Androgen receptor (AR), the “Degradation (1 μM treated in LNCaP, % AR remaining)” value was 25%.

Regarding `CC1(C)C(NC(=O)c2ccc(-c3cnn(C4CCN(CC5CCN(C(=O)C6CCN(c7ccc8nnn(C9CCC(=O)NC9=O)c(=O)c8c7)CC6)CC5)CC4)c3)cc2)C(C)(C)C1Oc1ccc(C#N)c(Cl)c1` (stereo not drawn) [Example 82, N-((1r,3r)-3-(3-chloro-4-cyanophenoxy)-2,2,4,4-tetramethylcyclobutyl)-4-(1-(1-((1-(1-(3-(2,6-dioxopiperidin-3-yl)-4-oxo-3,4-dihydrobenzo[d][1,2,3]triazin-6-yl)piperidine-4-carbonyl)piperidin-4-yl)methyl)piperidin-4-yl)-1H-pyrazol-4-yl)benzamide], the CC50 in the data set on VCaP cells (setting [1]) was determined as 0.0144 µM. Also, the “Degradation (1 μM treated in LNCaP, % AR remaining)” value on Androgen receptor (AR) is listed as 27%.

Regarding `CC1(C)C(NC(=O)c2ccc(N3CCN(CCCOC4CCN(C(=O)CNc5ccc6nnn(C7CCC(=O)NC7=O)c(=O)c6c5)CC4)CC3)cc2)C(C)(C)C1Oc1ccc(C#N)c(Cl)c1` (stereo not drawn) [Example 37, N-((1r,3r)-3-(3-chloro-4-cyanophenoxy)-2,2,4,4-tetramethylcyclobutyl)-4-(4-(3-((1-((3-(2,6-dioxopiperidin-3-yl)-4-oxo-3,4-dihydrobenzo[d][1,2,3]triazin-6-yl)glycyl)piperidin-4-yl)oxy)propyl)piperazin-1-yl)benzamide], the CC50 with VCaP cells (setting [1]) was 0.0291 µM. Besides, the “Degradation (1 μM treated in LNCaP, % AR remaining)” value on Androgen receptor (AR) amounted to 14.9%.

As to `CC1(C)C(NC(=O)c2ccc(-c3cnn(C4CCN(CC5CCN(C(=O)CNc6ccc7nnn(C8CCC(=O)NC8=O)c(=O)c7c6)CC5)CC4)c3)nc2)C(C)(C)C1Oc1ccc(C#N)c(Cl)c1` (stereo not drawn) [Example 125, N-((1r,3r)-3-(3-chloro-4-cyanophenoxy)-2,2,4,4-tetramethylcyclobutyl)-6-(1-(1-((1-((3-(2,6-dioxopiperidin-3-yl)-4-oxo-3,4-dihydrobenzo[d][1,2,3]triazin-6-yl)glycyl)piperidin-4-yl)methyl)piperidin-4-yl)-1H-pyrazol-4-yl)nicotinamide], the CC50 in the data set with VCaP cells (setting [1]) is 0.0155 µM.

For the molecule `CC1(C)C(NC(=O)c2ccc(CCN3CCN(CC4CCN(C(=O)C5CCN(c6ccc7nnn(C8CCC(=O)NC8=O)c(=O)c7c6)CC5)CC4)CC3)cc2)C(C)(C)C1Oc1ccc(C#N)c(Cl)c1` (stereo not drawn) [Example 108, N-((1r,3r)-3-(3-chloro-4-cyanophenoxy)-2,2,4,4-tetramethylcyclobutyl)-4-(2-(4-((1-(1-(3-(2,6-dioxopiperidin-3-yl)-4-oxo-3,4-dihydrobenzo[d][1,2,3]triazin-6-yl)piperidine-4-carbonyl)piperidin-4-yl)methyl)piperazin-1-yl)ethyl)benzamide], the CC50 in the data set with VCaP cells (setting [1]) turned out to be 0.0188 µM.
